# Test results from US9556200B2, “Tricyclic compound” (TAKEDA PHARMACEUTICAL COMPANY LIMITED, priority 2012, dated 2017).
# Where a name gives a salt, the structure may show the parent alone.
# Target: serotonin 5-HT2C receptor (VSV type isoform, stably expressed in CHO cells) (Homo sapiens, UniProt P28335, I156V/I160V/N158S)
# Experiment: cell-based
# Settings: read-out: ratio (%) relative to maximum response by 5-HT (10 μM)
# Sequence of serotonin 5-HT2C receptor (VSV type isoform, stably expressed in CHO cells) (P28335 33-458 I156V/N158S/I160V limits assumed): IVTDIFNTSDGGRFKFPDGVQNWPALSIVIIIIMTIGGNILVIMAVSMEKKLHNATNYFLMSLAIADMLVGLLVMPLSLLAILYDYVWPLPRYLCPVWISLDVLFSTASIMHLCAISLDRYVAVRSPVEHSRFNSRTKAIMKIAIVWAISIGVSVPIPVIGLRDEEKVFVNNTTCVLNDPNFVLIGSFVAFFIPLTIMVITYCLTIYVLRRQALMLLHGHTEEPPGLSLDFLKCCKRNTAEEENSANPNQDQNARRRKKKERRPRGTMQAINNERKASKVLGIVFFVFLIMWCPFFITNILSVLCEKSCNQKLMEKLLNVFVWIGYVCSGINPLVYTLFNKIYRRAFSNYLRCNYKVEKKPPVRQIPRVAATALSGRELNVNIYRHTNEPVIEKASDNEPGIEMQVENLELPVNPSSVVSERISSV
Structure (SMILES),Emax,Emax at 10 µM
"Cn1cc2c3c(cccc31)CCNC2 [Example 3, 1-methyl-3,4,5,6-tetrahydro-1H-azepino[3,4,5-cd]indole]",106%,–
"Cc1ccc2c3c1N(C)C[C@H]3CNCC2 [Example 12, (2aR)-1,9-dimethyl-2,2a,3,4,5,6-hexahydro-1H-azepino[3,4,5-cd]indole 0.5 sulfate]",102%,–
"c1cc2c3c(c1)OCC3CNCC2 (centres unmarked) [Example 32, 2,2a,3,4,5,6-hexahydrofuro[4,3,2-ef][3]benzazepine hydrochloride]",97%,–
"CC(=O)N1CC2CNCCc3ccc(Cl)c1c32 (centres unmarked) [Example 21, 1-(9-chloro-2,2a,3,4,5,6-hexahydro-1H-azepino[3,4,5-cd]indol-1-yl)ethanone hydrochloride]",109%,–
"c1cc2c3c(c1)SCC3CNCC2 (centres unmarked) [Example 43, 2,2a,3,4,5,6-hexahydrothieno[4,3,2-ef][3]benzazepine hydrochloride]",107%,–
"CC(=O)N1CC2CNCCc3c(Cl)cc(Cl)c1c32 (centres unmarked) [Example 23, 1-(7,9-dichloro-2,2a,3,4,5,6-hexahydro-1H-azepino[3,4,5-cd]indol-1-yl)ethanone]",100%,–
"O=C(c1ccccc1)N1CC2CNCCc3ccc(Cl)c1c32 (centres unmarked) [Example 37, (9-chloro-2,2a,3,4,5,6-hexahydro-1H-azepino[3,4,5-cd]indol-1-yl)(phenyl)methanone hydrochloride]",95%,–
"CC(=O)N1CC2CNCCc3c(Cl)ccc1c32 (centres unmarked) [Example 22, 1-(7-chloro-2,2a,3,4,5,6-hexahydro-1H-azepino[3,4,5-cd]indol-1-yl)ethanone hydrochloride]",105%,–
"CCN1C[C@@H]2CNCCc3ccc(Cl)c1c32 [Example 29, (2aS)-9-chloro-1-ethyl-2,2a,3,4,5,6-hexahydro-1H-azepino[3,4,5-cd]indole hydrochloride]",93%,–
"CN1CC2CNCCc3c(Cl)ccc1c32 (centres unmarked) [Example 6, 7-chloro-1-methyl-2,2a,3,4,5,6-hexahydro-1H-azepino[3,4,5-cd]indole hydrochloride]",98%,–
"CN1CC2CNCCc3cccc1c32 (centres unmarked) [Example 4, 1-methyl-2,2a,3,4,5,6-hexahydro-1H-azepino[3,4,5-cd]indole hydrochloride]",100%,–
"c1cc2c3c(c1)NCC3CNCC2 (centres unmarked) [Example 2, 2,2a,3,4,5,6-hexahydro-1H-azepino[3,4,5-cd]indole dihydrochloride]",107%,–
"Cc1ccc2c3c1N(C)CC3CNCC2 (centres unmarked) [Example 10, 1,9-dimethyl-2,2a,3,4,5,6-hexahydro-1H-azepino[3,4,5-cd]indole hydrochloride]",100%,–
"O=C(c1ccccc1)N1CC2CNCCc3c(Cl)ccc1c32 (centres unmarked) [Example 38, (7-chloro-2,2a,3,4,5,6-hexahydro-1H-azepino[3,4,5-cd]indol-1-yl)(phenyl)methanone hydrochloride]",93%,–
"CC(=O)N1C[C@@H]2CNCCc3ccc(Cl)c1c32 [Example 24, 1-((2aS)-9-chloro-2,2a,3,4,5,6-hexahydro-1H-azepino[3,4,5-cd]indol-1-yl)ethanone hydrochloride]",96%,–
"CC(=O)N1CC2CNCCc3cccc1c32 (centres unmarked) [Example 20, 1-(2,2a,3,4,5,6-hexahydro-1H-azepino[3,4,5-cd]indol-1-yl)ethanone hydrochloride]",94%,–
"CC(C)N1CC2CNCCc3cccc1c32 (centres unmarked) [Example 15, 1-isopropyl-2,2a,3,4,5,6-hexahydro-1H-azepino[3,4,5-cd]indole hydrochloride]",98%,–
"Clc1ccc2c3c1OCC3CNCC2 (centres unmarked) [Example 33, 9-chloro-2,2a,3,4,5,6-hexahydrofuro[4,3,2-ef][3]benzazepine hydrochloride]",94%,–
"CC(C)N1CC2CNCCc3ccc(Cl)c1c32 (centres unmarked) [Example 16, 9-chloro-1-isopropyl-2,2a,3,4,5,6-hexahydro-1H-azepino[3,4,5-cd]indole hydrochloride]",101%,–
"CC(=O)N1C[C@H]2CNCCc3ccc(Cl)c1c32 [Example 25, 1-((2aR)-9-chloro-2,2a,3,4,5,6-hexahydro-1H-azepino[3,4,5-cd]indol-1-yl)ethanone hydrochloride]",96%,–
"CC(C)C(=O)N1CC2CNCCc3c(Cl)ccc1c32 (centres unmarked) [Example 35, 1-(7-chloro-2,2a,3,4,5,6-hexahydro-1H-azepino[3,4,5-cd]indol-1-yl)-2-methylpropan-1-one hydrochloride]",99%,–

Structure (SMILES),Emax,Emax at 10 µM
"CN1CC2CNCCc3ccc(Cl)c1c32 (centres unmarked) [Example 5, 9-chloro-1-methyl-2,2a,3,4,5,6-hexahydro-1H-azepino[3,4,5-cd]indole hydrochloride]",108%,–
"CN1C[C@H]2CNCCc3ccc(Cl)c1c32 [Example 8, (2aR)-9-chloro-1-methyl-2,2a,3,4,5,6-hexahydro-1H-azepino[3,4,5-cd]indole hydrochloride]",105%,–
"O=C(c1ccccc1)N1CC2CNCCc3cccc1c32 (centres unmarked) [Example 36, 2,2a,3,4,5,6-hexahydro-1H-azepino[3,4,5-cd]indol-1-yl(phenyl)methanone hydrochloride]",79%,–
"CC(C)N1C[C@H]2CNCCc3ccc(Cl)c1c32 [Example 18, (2aR)-9-chloro-1-isopropyl-2,2a,3,4,5,6-hexahydro-1H-azepino[3,4,5-cd]indole hydrochloride]",105%,–
"CC(C)N1C[C@@H]2CNCCc3ccc(Cl)c1c32 [Example 17, (2aS)-9-chloro-1-isopropyl-2,2a,3,4,5,6-hexahydro-1H-azepino[3,4,5-cd]indole hydrochloride]",99%,–
"O=C(c1ccccc1)N1CC2CNCCc3c(Cl)cc(Cl)c1c32 (centres unmarked) [Example 39, 7,9-dichloro-1-(phenylcarbonyl)-2,2a,3,4,5,6-hexahydro-1H-azepino[3,4,5-cd]indole hydrochloride]",93%,–
"CN1CC2CNCCc3c(Cl)cc(Cl)c1c32 (centres unmarked) [Example 7, 7,9-dichloro-1-methyl-2,2a,3,4,5,6-hexahydro-1H-azepino[3,4,5-cd]indole]",97%,–
"CC(C)C(=O)N1CC2CNCCc3cccc1c32 (centres unmarked) [Example 34, 1-(2,2a,3,4,5,6-hexahydro-1H-azepino[3,4,5-cd]indol-1-yl)-2-methylpropan-1-one hydrochloride]",77%,–
"c1cc2c3c(coc3c1)CNCC2 [Example 31, 3,4,5,6-tetrahydrofuro[4,3,2-ef][3]benzazepine hydrochloride]",85%,–
"Clc1ccc2c3c1NCC3CNCC2 (centres unmarked) [Example 26, 9-chloro-2,2a,3,4,5,6-hexahydro-1H-azepino[3,4,5-cd]indole]",98%,–
"CC(C)c1ccc2c3c1N(C)CC3CNCC2 (centres unmarked) [Example 40, 9-isopropyl-1-methyl-2,2a,3,4,5,6-hexahydro-1H-azepino[3,4,5-cd]indole]",93%,–
"CN1C[C@@H]2CNCCc3ccc(Cl)c1c32 [Example 9, (2aS)-9-chloro-1-methyl-2,2a,3,4,5,6-hexahydro-1H-azepino[3,4,5-cd]indole hydrochloride]",109%,–
"c1cc2c3c(c[nH]c3c1)CNCC2 [Example 1, 3,4,5,6-tetrahydro-1H-azepino[3,4,5-cd]indole hydrochloride]",104%,–
"CN1CC2CNCCc3c(Br)cc(Br)c1c32 (centres unmarked) [Example 14, 7,9-dibromo-1-methyl-2,2a,3,4,5,6-hexahydro-1H-azepino[3,4,5-cd]indole hydrochloride]",–,87%
"Clc1ccc2c3c1N(C1CC1)C[C@@H]3CNCC2 [Example 30, (2aS)-9-chloro-1-cyclopropyl-2,2a,3,4,5,6-hexahydro-1H-azepino[3,4,5-cd]indole]",94%,–
"c1cc2c3c(csc3c1)CNCC2 [Example 41, 3,4,5,6-tetrahydrothieno[4,3,2-ef][3]benzazepine hydrochloride]",91%,–
"Cc1ccc2c3c1N(C)C[C@@H]3CNCC2 [Example 11, (2aS)-1,9-dimethyl-2,2a,3,4,5,6-hexahydro-1H-azepino[3,4,5-cd]indole 0.5 sulfate]",102%,–
"c1ccc(CN2CC3CNCCc4cccc2c43)cc1 (centres unmarked) [Example 19, 1-benzyl-2,2a,3,4,5,6-hexahydro-1H-azepino[3,4,5-cd]indole hydrochloride]",96%,–
"O=S1(=O)CC2CNCCc3cccc1c32 (centres unmarked) [Example 42, 2,2a,3,4,5,6-hexahydrothieno[4,3,2-ef][3]benzazepine 1,1-dioxide hydrochloride]",102%,–
"CN1CC2CNCCc3c(Br)ccc1c32 (centres unmarked) [Example 13, 7-bromo-1-methyl-2,2a,3,4,5,6-hexahydro-1H-azepino[3,4,5-cd]indole hydrochloride]",81%,–
